The numbers were not newly measured in publication PMC3530638 (Biochimica et biophysica acta, 2012), which cites them from elsewhere.

Broadly, the MIC is the smallest concentration in the dilution series that meets the test's criterion for growth inhibition.

This data set deals with B. anthracis. Conditions: cited from earlier work.

Turning to `CCCC1c2ccccc2C=NN1C(=O)/C=C/c1cc(Cc2cnc(N)nc2N)cc(OC)c1OC` (stereo not shown) [n-propyl, (E)-3-[5-(2,4-diaminopyrimidin-5-ylmethyl)-2,3-dimethoxyphenyl]-1-(1-propyl-1h-phthalazin-2-yl)propenone], the MIC was 1 to 3 µg/mL.
